Reference: patent US8513232B2, “Substituted spirocyclic piperidine derivatives as histamine-3 (H3) receptor ligands” (Cephalon, Inc., priority 2008, dated 2013)
Values joined by “and” are separate entries in the source; they are usually repeats but may differ in a detail not shown here. Equal entries are not always repeated. Where two headings read alike, the source gives them in different places.

How the values were obtained:
human H3 receptor = target: T1, human H3 receptor (Homo sapiens, UniProt Q9Y5N1); assay: Human H3 radioligand binding ([3H]-N-alpha-methylhistamine, SPA)
T1 construct: expressed in transfected cells
Outline: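 Compounds (0.01 nM-30 μM) competed with approximately 1 nM [3H]-N-alpha-methylhistamine for human H3 receptor in membranes of stably transfected CHO cells, 10 μg protein per well, in Tris-HCl pH 7.4/MgCl2/BSA buffer for 4 h at room temperature. Bound radioligand measured by scintillation proximity; 10 μM clobenpropit gave non-specific binding.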

[1] = target: T2, rat histamine H3 receptor (Rattus norvegicus, UniProt Q9QYN8); assay: Rat H3 radioligand binding ([3H]-N-alpha-methylhistamine, SPA)
T2 construct: encoding the entire 445-amino-acid rat histamine H3 receptor; expressed in transfected cells; membrane preparation
Outline: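 SPA-bead binding assay using [3H]-N-alpha-methylhistamine (approximately 1 nM final) with test compounds from 0.01 nM to 30 μM. Rat H3 receptor membranes came from stably transfected CHO-A3 cells; incubation ran 4 h at room temperature, in the dark, in Tris pH 7.4 buffer with MgCl2 and BSA. Clobenpropit (10 μM) gave non-specific binding.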

[2] = human H3 binding, Table D, read-out: Human H3 Ki
[3] = rat H3 binding, Table D, read-out: Rat H3 Ki
[4] = Human H3 binding, Table B, Examples 136-362, read-out: hum H3 binding Ki
[5] = Rat H3 binding, Table B, Examples 136-362, read-out: rat H3 binding Ki

T2 sequence (Q9QYN8 whole entry): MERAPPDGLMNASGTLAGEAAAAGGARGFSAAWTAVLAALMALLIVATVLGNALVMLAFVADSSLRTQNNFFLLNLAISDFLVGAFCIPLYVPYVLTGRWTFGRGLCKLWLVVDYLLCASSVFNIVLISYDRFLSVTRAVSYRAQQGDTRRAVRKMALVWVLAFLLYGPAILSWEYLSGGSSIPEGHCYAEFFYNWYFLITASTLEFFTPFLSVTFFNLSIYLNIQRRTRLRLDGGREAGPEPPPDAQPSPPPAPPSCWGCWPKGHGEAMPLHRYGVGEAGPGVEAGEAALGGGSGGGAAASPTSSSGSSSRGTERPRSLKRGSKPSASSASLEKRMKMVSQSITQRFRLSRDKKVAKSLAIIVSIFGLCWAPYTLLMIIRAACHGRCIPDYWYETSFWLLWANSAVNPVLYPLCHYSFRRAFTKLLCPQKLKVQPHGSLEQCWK
T1 sequence (Q9Y5N1 whole entry): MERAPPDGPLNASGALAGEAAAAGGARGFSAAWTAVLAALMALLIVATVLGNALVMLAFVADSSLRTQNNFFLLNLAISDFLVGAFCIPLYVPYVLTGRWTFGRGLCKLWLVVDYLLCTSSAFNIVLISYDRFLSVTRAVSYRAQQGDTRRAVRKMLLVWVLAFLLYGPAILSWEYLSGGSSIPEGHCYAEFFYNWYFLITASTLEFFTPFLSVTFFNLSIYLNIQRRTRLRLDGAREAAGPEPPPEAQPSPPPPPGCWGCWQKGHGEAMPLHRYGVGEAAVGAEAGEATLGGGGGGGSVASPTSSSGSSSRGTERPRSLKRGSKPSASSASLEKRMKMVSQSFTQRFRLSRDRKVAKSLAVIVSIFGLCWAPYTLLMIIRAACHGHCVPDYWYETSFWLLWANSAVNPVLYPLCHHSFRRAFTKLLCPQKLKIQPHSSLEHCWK

| Structure (SMILES) | melting point | Ki (human H3 receptor; [2]) [nM] | Ki [1, 3] [nM] | other results |
| --- | --- | --- | --- | --- |
| O=c1[nH]cc(-c2ccc3c(c2)COC2(CCN(C4CCC4)CC2)O3)cc1F [Example 727] | 200 to 202 °C | < 200 | < 200 |  |
| COCCNC(=O)C1CCCN(c2ccc3c(c2)COC2(CCN(C4CCC4)CC2)O3)C1 (stereo not drawn) [Example 613] | 55.4 to 57.3 °C | < 200 | < 200 |  |
| OC1(c2ccc3c(c2)COC2(CCN(C4CCC4)CC2)O3)CCSC1 (stereo not drawn) [Example 471] | 125 to 126 °C |  |  | Ki (human H3 receptor; read-out: Human H3 Ki): < 200 nM; Ki ([1]; read-out: Rat H3 kI): < 200 nM |
| c1ccc(Nc2ccc3c(c2)OC2(CCN(C4CCC4)CC2)O3)cc1 [Example 170] | 238 to 240 °C |  |  | Ki (human H3 receptor; [4]): < 200 nM; Ki [1, 5]: < 200 nM |
| COc1cc(C(=O)NC2CCOCC2)ccc1-c1ccc2c(c1)COC1(CCN(C3CCC3)CC1)O2 [Example 688] | 100 to 102 °C | < 200 | < 200 |  |
| CC(=O)N[C@H]1CCN(c2ccc3c(c2)COC2(CCN(C4CCC4)CC2)O3)C1 [Example 342] | 77.9 to 80 °C |  |  | Ki (human H3 receptor; [4]): < 200 nM; Ki [1, 5]: < 200 nM |
| COc1cc(-c2ccc3c(c2)COC2(CCN(C4CCC4)CC2)O3)cn(C)c1=O [Example 761] | 70 to 72 °C | < 200 | < 200 |  |
| O=C(NC[C@@H]1CCCO1)c1ccc(-c2ccc3c(c2)COC2(CCN(C4CCC4)CC2)O3)cc1F [Example 589] | 128 to 130 °C | < 200 | < 200 |  |
| OC(c1ccc2c(c1)COC1(CCN(C3CCC3)CC1)O2)C1CCSCC1 (stereo not drawn) [Example 496] | 85 to 90 °C |  |  | Ki (human H3 receptor; read-out: Human H3 Ki): < 200 nM; Ki ([1]; read-out: Rat H3 kI): < 200 nM |
| O=C(c1ccc(-c2ccc3c(c2)COC2(CCN(C4CCC4)CC2)O3)cc1F)N1CCCC1 [Example 41] | 171 to 172.5 °C |  |  | Ki (human H3 receptor; Table A, human H3 binding, read-out: Human Ki): < 200 nM; Ki ([1]; Table A, rat H3 binding, read-out: Rat Ki): < 200 nM |
| Cc1cc(=O)n(C)cc1-c1ccc2c(c1)COC1(CCN(C3CCC3)CC1)O2 [Example 709] | 151 to 154 °C | < 200 | < 200 |  |
| OC(c1ccc(F)cc1)c1ccc2c(c1)COC1(CCN(C3CCC3)CC1)O2 (stereo not drawn) [Example 513] | 58 to 62 °C |  |  | Ki (human H3 receptor; read-out: Human H3 Ki): < 200 nM; Ki ([1]; read-out: Rat H3 kI): < 200 nM |
| O=S1(=O)CCC(Oc2ccc3c(c2)CCC2(CCN(C4CCC4)CC2)O3)CC1 [Example 467] | 239 to 241 °C and 239 to 240 °C |  |  | Ki (human H3 receptor; read-out: Human H3 Ki): < 200 nM; Ki ([1]; read-out: Rat H3 kI): < 200 nM |
| COc1ccc(C(O)c2ccc3c(c2)COC2(CCN(C4CCC4)CC2)O3)cn1 (stereo not drawn) [Example 504] | 78 to 80 °C |  |  | Ki (human H3 receptor; read-out: Human H3 Ki): < 200 nM; Ki ([1]; read-out: Rat H3 kI): < 200 nM |
| O=c1c(Cl)c(-c2ccc3c(c2)COC2(CCN(C4CCC4)CC2)O3)ccn1CC(F)(F)F [Example 784] | 71.2 to 73.6 °C | < 200 | < 200 |  |
| COc1ncc(Oc2ccc3c(c2)CCC2(CCN(C4CCC4)CC2)O3)cn1 [Example 503] | 227 to 229 °C |  |  | Ki (human H3 receptor; read-out: Human H3 Ki): < 200 nM; Ki ([1]; read-out: Rat H3 kI): < 200 nM |
| COc1ncc(-c2ccc3c(c2)COC2(CCN(C4CCC4)CC2)O3)cc1C [Example 610] | 142 to 145 °C | < 200 | < 200 |  |
| O=C(CCc1ccc2c(c1)COC1(CCN(C3CCC3)CC1)O2)NC1CCOCC1 [Example 645] | 167 to 169 °C | < 200 | 200 to 1000 |  |
| COc1cc(-c2ccc3c(c2)COC2(CCN(C4CCC4)CC2)O3)ccc1C(=O)N1CCOCC1 [Example 636] | 94 to 96 °C | < 200 | < 200 |  |
| O=C(N1CCCC1)N1CCN(c2ccc3c(c2)CCC2(CCN(C4CCC4)CC2)O3)CC1 [Example 388] | 165 to 167 °C |  |  | Ki (human H3 receptor; Table C, human H3 binding, read-out: Human H3 Ki): < 200 nM; Ki ([1]; Table C, rat H3 binding, read-out: Rat H3 Ki): < 200 nM |
| CCc1nnc(CCc2ccc3c(c2)COC2(CCN(C4CCC4)CC2)O3)o1 [Example 694] | 98 to 100 °C | < 200 | < 200 |  |
| CN(C)C(=O)CC1CCN(c2ccc3c(c2)COC2(CCN(C4CCC4)CC2)O3)CC1 [Example 586] | 68.5 to 70.2 °C | < 200 | < 200 |  |
